# In patent publication US20100273801A1, “BETULIN DERIVED COMPOUNDS USEFUL AS ANTIBACTERIAL AGENTS” (Valition teknillinen tutikimuskeskus, priority 2006, published 2010):
# Structures can show the parent of a compound that is named as a salt. Where two headings read alike, the source gives them in different places.
# Experiments:
# [1] = system: Staphylococcus aureus; assay: turbidometric bacterial growth inhibition on a 96 well plate; conditions: for percent growth inhibition S. aureus 4 h / percent growth inhibition S. aureus 24 h: compound 1 mg/ml; for inhibition at 1000 µg/mL / inhibition at 0.1 µg/mL / inhibition at 1 µg/mL: Staphylococcus aureus
# Protocol: (§1) The antimicrobial efficiency of betulin derived compounds against Staphylococcus aureus, Staphylococcus epidemidis, Micrococcus luteus and Bacillus subtilis was studied using a turbidometric method on a 96 well plate.
# (§2) After juvenescence, suspension cultivation was prepared from the bacterial strains in the Todd-Hewitt broth. The suspension was introduced with a pipette to a 96 well plate, followed by the addition of the compound to be tested (3 parallel tests for each compound). […] Erythromycin was used as the control. Bacterial growth was monitored by measuring the absorbances of the samples at 620 nm at 0, 1, 2, 3, 4 and 24 hours. The sample plate was incubated at 37° C. in a shaker (250 rpm) between the measurements. Effects of the compounds on bacterial growth were evaluated by comparison of the growths of exposed and unexposed samples.
# [2] = system: S. epidermidis; assay: as above; conditions: for percent growth inhibition S. epidermidis 4 h / percent growth inhibition S. epidermidis 24 h: compound 1 mg/ml; for inhibition at 1000 µg/mL / inhibition at 0.1 µg/mL / inhibition at 1 µg/mL: Staphylococcus epidermidis
# Protocol: as §1, §2
# [3] = system: Micrococcus luteus; assay: as above; conditions: for percent growth inhibition M. luteus 4 h / percent growth inhibition M. luteus 24 h: compound 1 mg/ml; for inhibition at 1000 µg/mL / inhibition at 0.1 µg/mL / inhibition at 1 µg/mL: Micrococcus luteus
# Protocol: as §1, §2
# [4] = system: Bacillus subtilis; assay: as above; conditions: for percent growth inhibition B. subtilis 4 h / percent growth inhibition B. subtilis 24 h: compound 1 mg/ml; for inhibition at 1000 µg/mL / inhibition at 0.1 µg/mL / inhibition at 1 µg/mL: Bacillus subtilis
# Protocol: as §1, §2
# [5] = system: bacteria; assay: antibacterial activity of compounds derived from betulin (summary statement); assay type: cell-based; conditions: already at a concentration of 1 μg/ml
# Text: Erythromycin was used as the control.
# [6] = 4 h, read-out: percent growth inhibition S. aureus 4 h
# [7] = 24 h, read-out: percent growth inhibition S. aureus 24 h
# [8] = 4 h, read-out: percent growth inhibition S. epidermidis 4 h
# [9] = 24 h, read-out: percent growth inhibition S. epidermidis 24 h
# [10] = 4 h, read-out: percent growth inhibition M. luteus 4 h
# [11] = 24 h, read-out: percent growth inhibition M. luteus 24 h
# [12] = 4 h, read-out: percent growth inhibition B. subtilis 4 h
# [13] = 24 h, read-out: percent growth inhibition B. subtilis 24 h
Compound,percent growth inhibition S. aureus 4 h ([1]; 4 h),percent growth inhibition S. aureus 24 h ([1]; 24 h),percent growth inhibition S. epidermidis 4 h ([2]; 4 h),percent growth inhibition S. epidermidis 24 h ([2]; 24 h),percent growth inhibition M. luteus 4 h ([3]; 4 h),percent growth inhibition M. luteus 24 h ([3]; 24 h),percent growth inhibition B. subtilis 4 h ([4]; 4 h),percent growth inhibition B. subtilis 24 h ([4]; 24 h),further results
"3,28-diisostearic acid ester of betulin [Compound 1]",2.1%,0.0%,0.0%,0.0%,8.8%,7.6%,0.0%,8.9%,–
"betulin 3,28-diacetate-18-19-diene [Compound 6]",0.0%,0.0%,0.0%,0.0%,0.0%,1.5%,0.0%,3.7%,–
"C=C(C)[C@@H]1CC[C@]2(COS(C)(=O)=O)CC[C@]3(C)[C@H](CC[C@@H]4[C@@]5(C)CC[C@H](OC(C)=O)C(C)(C)[C@@H]5CC[C@]43C)[C@@H]12 [Compound 25, betulin 3-acetate-28 mesylate]",6.9%,0.0%,3.2%,12.7%,1.6%,12.4%,0.0%,15.2%,–
"C=C(C)[C@@H]1CC[C@]2(C(=O)O)CC[C@]3(C)[C@H](CC[C@@H]4[C@@]5(C)CCC(=O)C(C)(C)[C@@H]5CC[C@]43C)[C@@H]12 [Compound 5, betulonic acid]",51.6%,0.0%,52.7%,0.0%,91.3%,0.0%,102.3%,0.0%,antibacterial activity [5]: considerable antibacterial activity
28-C18-alkenylsuccinic acid diester of betulin [Compound 21],0.0%,0.0%,0.0%,0.0%,0.0%,10.1%,0.0%,6.9%,–
"C=C(C)[C@@H]1CC[C@]2(COC(=O)c3ccccc3NC(C)=O)CC[C@]3(C)C(CCC4[C@@]5(C)CC[C@H](O)C(C)(C)C5CC[C@]43C)C12 (stereo partly shown) [Compound 29, 28-N-acetylanthranilic acid ester of betulin]",102.6%,103.4%,66.6%,20.2%,89.9%,60.5%,100.8%,54.6%,antibacterial activity [5]: considerable antibacterial activity
"C=C(C)[C@@H]1CC[C@]2(C(=O)NC(CC(=O)OC)C(=O)OC)CC[C@]3(C)C(CCC4[C@@]5(C)CCC(=O)C(C)(C)C5CC[C@]43C)C12 (stereo partly shown) [Compound 8, 28-aspartate dimethylesteramide of betulonic acid]",–,–,–,–,–,–,–,–,"inhibition at 1000 µg/mL [1, 6]: 0%; inhibition at 1000 µg/mL [1, 7]: 0%; inhibition at 1000 µg/mL [2, 8]: 0%; inhibition at 1000 µg/mL [2, 9]: 0%; inhibition at 1000 µg/mL [3, 10]: 0%; inhibition at 1000 µg/mL [3, 11]: 0%; inhibition at 1000 µg/mL [4, 12]: 0%; inhibition at 1000 µg/mL [4, 13]: 5.8%"
"CC[C@H]1OC(=O)[C@H](C)[C@@H](O[C@H]2C[C@@](C)(OC)[C@@H](O)[C@H](C)O2)[C@H](C)[C@@H](O[C@@H]2O[C@H](C)C[C@H](N(C)C)[C@H]2O)[C@](C)(O)C[C@@H](C)C(=O)[C@H](C)[C@@H](O)[C@]1(C)O [Compound 31, erythromycin, reference compound]",–,–,–,–,–,–,–,–,"inhibition at 0.1 µg/mL [1, 6]: 53.6%; inhibition at 1 µg/mL [1, 6]: 79.8%; inhibition at 0.1 µg/mL [1, 7]: 11.7%; inhibition at 1 µg/mL [1, 7]: 72.1%; inhibition at 0.1 µg/mL [2, 8]: 100%; inhibition at 1 µg/mL [2, 8]: 100%; inhibition at 0.1 µg/mL [2, 9]: 90.8%; inhibition at 1 µg/mL [2, 9]: 100%; inhibition at 0.1 µg/mL [3, 10]: 96.1%; inhibition at 1 µg/mL [3, 10]: 100%; inhibition at 0.1 µg/mL [3, 11]: 100%; inhibition at 1 µg/mL [3, 11]: 100%; inhibition at 0.1 µg/mL [4, 12]: 95.6%; inhibition at 1 µg/mL [4, 12]: 100%; inhibition at 0.1 µg/mL [4, 13]: 100%; inhibition at 1 µg/mL [4, 13]: 100%"
"C=C(C)[C@@H]1CC[C@]2(COC(=O)COc3cc(C(C)C)ccc3C)CC[C@]3(C)[C@H](CC[C@@H]4[C@@]5(C)CC[C@H](O)C(C)(C)[C@@H]5CC[C@]43C)[C@@H]12 [Compound 23, 28-carvacrolacetic acid ester of betulin]",9.9%,11.1%,6.8%,0.0%,0.0%,0.1%,0.7%,7.3%,–
"C=C(C)C1CCC2(COC(=O)C=Cc3ccccc3)CCC3(C)C(CCC4C5(C)CCC(O)C(C)(C)C5CCC43C)C12 (stereo not shown) [Compound 30, 28-cinnamic acid ester of betulin]",13.0%,0.0%,8.5%,0.0%,0.0%,0.0%,5.9%,11.1%,–
"3,28-octanedioic acid ester of betulin [Compound 10]",0.0%,0.0%,0.0%,1.7%,0.0%,2.7%,0.0%,2.6%,–
"3,28-C18-dialkenylsuccinic acid diester of betulin [Compound 20]",0.0%,0.0%,0.0%,0.0%,0.0%,12.6%,0.0%,9.0%,–
